How the values were obtained:
[1] = Tissue biodistribution of 3H-KCPBL in mice; type: in vivo; details: for Biodistribution, Bone / Biodistribution, Brain / Biodistribution, Heart / Biodistribution, Kidney / Biodistribution, Large Intestine / Biodistribution, Liver / Biodistribution, Lung / Biodistribution, Muscle / Biodistribution, Small Intestine / Biodistribution, Spleen / Biodistribution, Stomach: 100 mg/kg
Description: The objectives of these tests were to evaluate the pharmacokinetics of radiolabeled KCPBL when administered either perorally or intravenously to mice.
3H-KCPBL was prepared from the pure drug substance KCPBL by an exchange procedure using high specific activity tritiated water. The product was purified by reverse phase high performance liquid chromatography and then freeze-dried. Analysis was carried out on ^3 H-KCPBL reconstituted in water. Specific activity was not less than 185 GBg/mmol or 5 Ci/mmol and the molecular weight of the product is 258. HPLC analysis for purity was performed using a Zorbax C8 column (25 cm×4.6) eluting with water: acetonitrile (930:70).
In the mouse studies, 3H-KCPBL was dissolved in sterile pyrogen-free saline containing […] of non-radiolabeled KCPBL. The final concentration of the test article in an injection volume of 0.1 ml was 66.6 mcCi. One tenth ml was administered intravenously for plasma level and tissue biodistribution studies. Peroral dosages were prepared in a manner consistent with this approach.
Tissue samples were collected and assayed as described above. The tissues evaluated for KCPBL content at four and at 24 hours after test article administration were: heart, lung, kidney, liver spleen, muscle, bond, stomach, small intestine, large intestine and brain.

interleukin-2 = test: Immunomodulation panel: In vitro production of interleukin-2 (CTLL2 bioassay); type: in vivo, C57BL/6J mice
Description: The bioassay uses the IL-2 growth-dependent cell line, CTLL2 as the indicator cell line to quantitate IL-2 in a biological fluid. The assay utilizes tritiated thymidine uptake by these cells as a measure of cellular proliferation. A reference standard obtained from the NCI Biological Response Modifiers Program is employed to construct a standard curve and to calculate Half Maximal Units (HMU) activity per ml. The assay was modified from one reported by Gillis et al. (J. Immunol. 120: 2927, 1978) and was recently reviewed as a clinical bioassay (Shalaby and Pallidino, In: Manual of Clinical Laboratory Immunology, 3rd Ed., p 300, American Society for Microbiology, Washington, D.C.).
2. Each sample is assayed in triplicate, over dilutions of 1/2, 1/4, 1/8, and 1/16 in a 96 well flat bottom plate. A totoal of eight (8) samples may be assayed in a single 96 well plate.
Analysis: Values are obtained from counter as counts per minute (cpm). The average of each triplicate sample dilution count is calculated. A standard curve of known half maximal units of the IL-2 standard dilution/cpm is constructed using a PC program for generation of the least squares line of best fit. IL-2 values are thus assessed for each sample based upon the standard curve and reported.
(§1) Daily intraperitoneal injections of KCPBL were administered to normal animals and immunological responsiveness to mitogens and specific antigen evaluated.
(§2) Doses and schedule--Doses were selected to bracket the range generally known to be immunostimulatory in past experiments, 1, 10, and […] daily for four days.
(§3) As an assessment of immunopathology in the above screening test panel, the cellularity of the spleen was evaluated by determination of the total number of splenocytes harvested. Humoral-mediated immunity was measured by enumerating IgM plaque-forming cells to the T-dependent antigen sheep erythrocytes. Cell-mediated immunity was evaluated as described above by determination of the ability of the splenocytes to produce the lymphokine interleukin-2 in response to stimulation by the mitogen concanavalin-A. Another measurement of cell-mediated immunity was the responsiveness of the splenic lymphocytes to the mitogens concanavalin-A (Con-A); phytohemagglutinin (PHA) and pokeweed mitogen (PWM) in the lymphocyte blastogenesis assay. In the latter test, the activation and proliferation of the lymphocytes to the mitogens represents the capability of the cells to sequentially pass from G0 to G1 and the S phse of the cell cycle. The responsiveness of the cells was measured by the uptake of radiolabeled 14C-thymidine.

[2] = tested on: IgM plaque-forming cells to sheep erythrocytes; test: Immunomodulation panel: IgM plaque-forming response to SRBC; type: in vivo, C57BL/6J mice; design: Anti-SRBC Plaque Forming Cells: unit not given here
Description: as §1
Inbred C57BL/6J mice were obtained from Jackson Laboratories, Bar Harbor, Me. The animals were held for one week before use in an experiment. Prior to commencement of a study, the animals were placed into groups and weighed.
as §2
Immunization--All animals except for sham controls were injected with 0.5 ml of a 2% suspension of sheep erythrocyte on day zero. This occurred two days following any pretreatment and the day before the initiation of study drug administration.
Sacrifice--Animals were sacrificed by cervical dislocation on day five. The spleens were surgically removed and the following immunological evaluations conducted.
as §3

splenic lymphocytes = test: Immunomodulation panel: lymphocyte blastogenesis (Con-A, PHA, PWM); type: in vivo, C57BL/6J mice; details: 100 mg/kg i.p.

## O=C1CCC(C2(O)C(=O)OC3C(O)COC32O)C1 (stereo not drawn) [KCPBL]
[1]; 4 h, intravenous
  tissues with highest drug levels: liver, gastrointestinal tract, and brain
[1]; 4 h, peroral
  tissues with highest drug levels: principally found in the kidneys and the gastrointestinal tract
[1]; 24 h, intravenous
  tissues with highest drug levels: muscle and brain demonstrated the highest levels
[1]; 24 h, peroral
  tissues with highest drug levels: the highest drug levels were found in muscle and brain
[1]; intravenous, 4 hour
  Biodistribution, Bone: 12.77 ± 3.96 mcg/gm
  Biodistribution, Brain: 38.60 ± 16.90 mcg/gm
  Biodistribution, Heart: 10.45 ± 3.50 mcg/gm
  Biodistribution, Kidney: 11.72 ± 1.34 mcg/gm
  Biodistribution, Large Intestine: 65.57 ± 14.86 mcg/gm
  Biodistribution, Liver: 21.20 ± 4.78 mcg/gm
  Biodistribution, Lung: 2.60 ± 2.20 mcg/gm
  Biodistribution, Muscle: 31.97 ± 6.09 mcg/gm
  Biodistribution, Small Intestine: 58.50 ± 18.68 mcg/gm
  Biodistribution, Spleen: 0.95 ± 0.36 mcg/gm
  Biodistribution, Stomach: 23.79 ± 5.96 mcg/gm
[1]; intravenous, 24 hour
  Biodistribution, Bone: 4.53 ± 0.86 mcg/gm
  Biodistribution, Brain: 34.80 ± 20.5 mcg/gm
  Biodistribution, Heart: 2.85 ± 1.23 mcg/gm
  Biodistribution, Kidney: 5.35 ± 3.66 mcg/gm
  Biodistribution, Large Intestine: 13.67 ± 9.3 mcg/gm
  Biodistribution, Lung: 1.32 ± 0.46 mcg/gm
  Biodistribution, Muscle: 120.90 ± 154.0 mcg/gm
  Biodistribution, Small Intestine: 9.62 ± 6.4 mcg/gm
  Biodistribution, Spleen: 0.71 ± 0.23 mcg/gm
  Biodistribution, Stomach: 10.36 ± 5.8 mcg/gm
[1]; intravenous, 24 hour, SD: data not available
  Biodistribution, Liver: 25.7 mcg/gm
[1]; peroral, 4 hour
  Biodistribution, Bone: 15.02 ± 13.6 mcg/gm
  Biodistribution, Brain: 35.22 ± 1.64 mcg/gm
  Biodistribution, Heart: 13.64 ± 4.98 mcg/gm
  Biodistribution, Kidney: 63.57 ± 74.0 mcg/gm
  Biodistribution, Large Intestine: 135.9 ± 32.5 mcg/gm
  Biodistribution, Liver: 38.03 ± 5.0 mcg/gm
  Biodistribution, Lung: 2.72 ± 0.38 mcg/gm
  Biodistribution, Muscle: 40.81 ± 3.37 mcg/gm
  Biodistribution, Small Intestine: 217.50 ± 267.6 mcg/gm
  Biodistribution, Spleen: 1.73 ± 0.29 mcg/gm
  Biodistribution, Stomach: 110.00 ± 118.0 mcg/gm
[1]; peroral, 24 hour
  Biodistribution, Bone: 10.30 ± 4.72 mcg/gm
  Biodistribution, Brain: 47.30 ± 33.0 mcg/gm
  Biodistribution, Heart: 5.13 ± 3.37 mcg/gm
  Biodistribution, Kidney: 10.28 ± 5.58 mcg/gm
  Biodistribution, Large Intestine: 21.42 ± 4.39 mcg/gm
  Biodistribution, Liver: 11.84 ± 9.58 mcg/gm
  Biodistribution, Lung: 3.73 ± 3.49 mcg/gm
  Biodistribution, Muscle: 188.5 ± 124.0 mcg/gm
  Biodistribution, Small Intestine: 24.45 ± 5.3 mcg/gm
  Biodistribution, Spleen: 1.71 ± 0.16 mcg/gm
  Biodistribution, Stomach: 25.72 ± 15.0 mcg/gm
interleukin-2; 1.0 mg/kg i.p.
  IL-2 Half Maximal Units: 4.48 ± 1.5 Half Maximal Units [10^6 Cells
interleukin-2; 10 mg/kg i.p.
  IL-2 Half Maximal Units: 4.33 ± 1.4 Half Maximal Units [10^6 Cells
interleukin-2; 100 mg/kg i.p.
  IL-2 Half Maximal Units: 4.14 ± 1.3 Half Maximal Units [10^6 Cells
interleukin-2; drug-treated animals
  IL-2 production vs controls: produced significantly more IL-2 than controls
[2]; 1 mg/kg
  PFC increase, significance: values higher than the control group but the difference was not statistically significant
[2]; 1.0 mg/kg i.p.
  Anti-SRBC Plaque Forming Cells: 192.8 ± 59.
[2]; 100 and 10 mg/kg
  PFC increase, significance: A significant increase in PFC
Splenic lymphocytes
  Lymphocyte Blastogenesis, PHA: 5849 ± 1227 Counts per minute
  Lymphocyte Blastogenesis, RPMI: 83 ± 35 Counts per minute
